Data taken from ChEMBL document CHEMBL5728313, “Methods for inhibiting fascin” (2021).
pIC50: −log10 of the molar value.

Assay: High Throughput Inhibition Assay: A high throughput assay was developed to screen for fascin specific inhibitors. Purified polymerized F-actin with or without fascin were mixed and incubated to allow actin bundle formation. F-actin polymers were then bound to the poly-D-lysine coated plates. After extensive washes, F-actin polymers were visualized by labeling them with Alexa Fluor 488 phalloidin. Four images were taken from each well and the average fiber length was analyzed for each tested compound.

O=C(Cn1cnc2c(cnn2C2CCS(=O)(O)(O)C2)c1=O)Nc1ccc(Cl)cc1 (stereo unspecified)
pIC50: 5.37
